Measurements: patent publication US12213969B2, “2-spiro-5- and 6-hydroxamic acid indanes as HDAC inhibitors” (Valo Health, Inc., priority 2016, dated 2025)

Target: T1, Full length human recombinant HDAC6 protein (Homo sapiens, UniProt Q9UBN7)
T1 construct: made in house
T1 sequence (Q9UBN7 1-1215): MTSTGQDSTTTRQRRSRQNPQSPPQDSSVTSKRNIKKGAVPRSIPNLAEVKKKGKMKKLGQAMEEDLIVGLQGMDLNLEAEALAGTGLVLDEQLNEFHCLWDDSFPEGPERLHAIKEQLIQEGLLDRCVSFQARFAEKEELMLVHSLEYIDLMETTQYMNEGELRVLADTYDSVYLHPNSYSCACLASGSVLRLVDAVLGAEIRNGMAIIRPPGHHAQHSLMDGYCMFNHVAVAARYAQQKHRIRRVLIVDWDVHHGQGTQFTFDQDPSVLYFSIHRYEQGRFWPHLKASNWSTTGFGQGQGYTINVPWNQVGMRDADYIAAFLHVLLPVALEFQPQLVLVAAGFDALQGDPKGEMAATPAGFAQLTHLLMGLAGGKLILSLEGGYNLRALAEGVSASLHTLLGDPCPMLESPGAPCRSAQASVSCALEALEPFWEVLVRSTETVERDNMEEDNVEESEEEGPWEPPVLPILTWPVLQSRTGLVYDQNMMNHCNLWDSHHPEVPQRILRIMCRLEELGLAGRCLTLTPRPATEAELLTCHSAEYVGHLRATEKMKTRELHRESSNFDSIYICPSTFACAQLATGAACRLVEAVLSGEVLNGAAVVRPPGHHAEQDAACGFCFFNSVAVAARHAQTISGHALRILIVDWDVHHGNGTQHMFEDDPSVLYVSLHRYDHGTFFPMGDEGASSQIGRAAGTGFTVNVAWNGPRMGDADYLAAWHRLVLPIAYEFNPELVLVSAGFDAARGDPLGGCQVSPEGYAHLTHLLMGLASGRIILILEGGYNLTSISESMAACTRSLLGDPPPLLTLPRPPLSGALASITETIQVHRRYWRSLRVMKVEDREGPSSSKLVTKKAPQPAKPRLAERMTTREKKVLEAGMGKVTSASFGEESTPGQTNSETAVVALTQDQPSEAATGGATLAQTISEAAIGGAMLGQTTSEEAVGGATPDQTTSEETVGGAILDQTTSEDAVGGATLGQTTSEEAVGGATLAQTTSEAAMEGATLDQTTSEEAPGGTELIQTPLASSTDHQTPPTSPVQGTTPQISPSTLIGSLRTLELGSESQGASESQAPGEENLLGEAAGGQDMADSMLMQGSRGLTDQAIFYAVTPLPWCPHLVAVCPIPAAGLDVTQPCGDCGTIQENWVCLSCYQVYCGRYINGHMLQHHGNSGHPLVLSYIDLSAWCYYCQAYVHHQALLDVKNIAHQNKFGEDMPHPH
Assay: In vitro histone deacetylase assay: enzymatic HDAC6 electrophoretic mobility shift assay
Assay type: biochemical
Details: peptide substrate RHKK(Ac)-NH2 2 μM, enzyme 1 nM, 25° C., 12 concentrations; read-out: HDAC6 activity range (IC50)
Procedure: The enzymatic HDAC6 assay was performed using electrophoretic mobility shift assay. Full length human recombinant HDAC6 protein was expressed in baculoviral system and purified by affinity chromatography. The enzymatic reactions were assembled in 384 well plates in a total volume of 25 μL in a reaction buffer composing: 100 mM HEPES, pH 7.5, 25 mM KCl, 0.1% bovine serum albumin, 0.01% Triton X-100, 1% DMSO (from compounds) 2 μM of the fluorescently labeled peptide substrate and enzyme. The enzyme was added at a final concentration of 1 nM. The peptide substrate RHKK(Ac)-NH2 was used. The compounds were tested at 12 concentrations spaced by 3× dilution intervals. Negative control samples (0%-inhibition in the absence of inhibitor) and positive control samples (100%-inhibition) were assembled in replicates of four in each assay plate. The reactions were incubated at 25° C. and quenched by the addition of 45 μL of termination buffer (100 mM HEPES, pH 7.5, 0.01% Triton X-100, 0.05% SDS).
The terminated assay plates were analyzed on LabChip® 3000 microfluidic electrophoresis instrument (Perkin Elmer/Caliper Life Sciences). The fluorescence intensity of the electrophoretically separated de-acetylated product and substrate peptide was measured. Activity in each sample was determined as the product to sum ratio (PSR): P/(S+P), where P is the peak height of the product peptide and S is the peak height of the substrate peptide. Percent inhibition (Pinh) is determined using the following equation:
Pinh=(PSR0%−PSRinh)/(PSR0%−PSR100%)*100, where PSRinh is the product sum ratio in the presence of inhibitor, PSR0% is the average product sum ration in the absence of inhibitor and PSR100% is the average product sum ratio in 100%-inhibition control samples. The IC50 values of inhibitors were determined by fitting the %-inhibition curves with 4 parameter dose-response model using XLfit 4 software.
As set forth in Table-7, below, IC50 values are defined as follows: IC50≤0.01 μM (+++); IC50>0.01 μM and ≤0.05 μM (++); IC50>0.05 μM (+).

| SMILES | IC50 [nM] |
| --- | --- |
| O=C(NO)c1ccc2c(c1)C[C@@]1(CCN(c3ccccn3)C1=O)C2 [Compound I-19, (R)—N-hydroxy-2′-oxo-1′-(pyridin-2-yl)-1,3-dihydrospiro[indene-2,3′-pyrrolidine]-5-carboxamide] | 10 to 50 |
| O=C(NO)c1ccc2c(c1)C[C@@]1(CCN(c3ccc(F)cc3)C1=O)C2 [Compound I-15, (R)-1′-(4-fluorophenyl)-N-hydroxy-2′-oxo-1,3-dihydrospiro[indene-2,3′-pyrrolidine]-5-carboxamide] | 10 to 50 |
| O=C(NO)c1ccc2c(c1)C[C@]1(CCCN(Cc3ccccc3)C1=O)C2 [Compound I-35, (S)-1′-benzyl-N-hydroxy-2′-oxo-1,3-dihydrospiro[indene-2,3′-piperidine]-5-carboxamide] | 10 to 50 |
| CN1CCC[C@]2(Cc3ccc(C(=O)NO)cc3C2)C1=O [Compound I-32, (R)—N-hydroxy-1′-methyl-2′-oxo-1,3-dihydrospiro[indene-2,3′-piperidine]-5-carboxamide] | 10 to 50 |
| O=C(NO)c1ccc2c(c1)C[C@]1(CCN(c3ccccn3)C1=O)C2 [Compound I-20, (S)—N-hydroxy-2′-oxo-1′-(pyridin-2-yl)-1,3-dihydrospiro[indene-2,3′-pyrrolidine]-5-carboxamide] | 10 to 50 |
| Cc1ccccc1CN1CC[C@@]2(Cc3ccc(C(=O)NO)cc3C2)C1=O [Compound I-10, (S)—N-hydroxy-1′-(2-methylbenzyl)-2′-oxo-1,3-dihydrospiro[indene-2,3′-pyrrolidine]-5-carboxamide] | 10 to 50 |
| CN1CC[C@@]2(Cc3ccc(C(=O)NO)cc3C2)C1=O [Compound I-2, (S)—N-hydroxy-1′-methyl-2′-oxo-1,3-dihydrospiro[indene-2,3′-pyrrolidine]-5-carboxamide] | 10 to 50 |
| CC(C)CN1CC[C@]2(Cc3ccc(C(=O)NO)cc3C2)C1=O [Compound I-7, (R)—N-hydroxy-1′-isobutyl-2′-oxo-1,3-dihydrospiro[indene-2,3′-pyrrolidine]-5-carboxamide] | 10 to 50 |
| O=C(NO)c1ccc2c(c1)C[C@@]1(CCN(Cc3ccccc3)C1=O)C2 [Compound I-11, (R)-1′-benzyl-N-hydroxy-2′-oxo-1,3-dihydrospiro[indene-2,3′-pyrrolidine]-5-carboxamide] | ≤ 10 |
| CC(C)CN1CC[C@@]2(Cc3ccc(C(=O)NO)cc3C2)C1=O [Compound I-8, (S)—N-hydroxy-1′-isobutyl-2′-oxo-1,3-dihydrospiro[indene-2,3′-pyrrolidine]-5-carboxamide] | 10 to 50 |
| O=C(NO)c1ccc2c(c1)C[C@]1(CCN(c3ccc(F)cc3)C1=O)C2 [Compound I-16, (S)-1′-(4-fluorophenyl)-N-hydroxy-2′-oxo-1,3-dihydrospiro[indene-2,3′-pyrrolidine]-5-carboxamide] | 10 to 50 |
| O=C(NO)c1ccc2c(c1)C[C@@]1(CCN(Cc3cccnc3)C1=O)C2 [Compound I-23, (R)—N-hydroxy-2′-oxo-1′-(pyridin-3-ylmethyl)-1,3-dihydrospiro[indene-2,3′-pyrrolidine]-5-carboxamide] | 10 to 50 |
| O=C(NO)c1ccc2c(c1)C[C@]1(CCN(Cc3ccccc3)C1)C2 [Compound I-27, (S)-1′-benzyl-N-hydroxy-1,3-dihydrospiro[indene-2,3′-pyrrolidine]-5-carboxamide] | 10 to 50 |
| O=C(NO)c1ccc2c(c1)C[C@]1(CCN(c3ccccc3)C1=O)C2 [Compound I-14, (S)—N-hydroxy-2′-oxo-1′-phenyl-1,3-dihydrospiro[indene-2,3′-pyrrolidine]-5-carboxamide] | 10 to 50 |
| CN1CC[C@]2(Cc3ccc(C(=O)NO)cc3C2)C1 [Compound I-24, (R)—N-hydroxy-1′-methyl-1,3-dihydrospiro[indene-2,3′-pyrrolidine]-5-carboxamide] | 10 to 50 |
| CC(C)N1CC[C@@]2(Cc3ccc(C(=O)NO)cc3C2)C1=O [Compound I-4, (S)—N-hydroxy-1′-isopropyl-2′-oxo-1,3-dihydrospiro[indene-2,3′-pyrrolidine]-5-carboxamide] | > 50 |
| Cc1ccccc1CN1CC[C@]2(Cc3ccc(C(=O)NO)cc3C2)C1=O [Compound I-9, (R)—N-hydroxy-1′-(2-methylbenzyl)-2′-oxo-1,3-dihydrospiro[indene-2,3′-pyrrolidine]-5-carboxamide] | 10 to 50 |
| CN1CCC[C@@]2(Cc3ccc(C(=O)NO)cc3C2)C1=O [Compound I-33, (S)—N-hydroxy-1′-methyl-2′-oxo-1,3-dihydrospiro[indene-2,3′-piperidine]-5-carboxamide] | 10 to 50 |
| CN1CC[C@]2(Cc3ccc(C(=O)NO)cc3C2)C1=O [Compound I-1, (R)—N-hydroxy-1′-methyl-2′-oxo-1,3-dihydrospiro[indene-2,3′-pyrrolidine]-5-carboxamide] | 10 to 50 |
| O=C(NO)c1ccc2c(c1)C[C@@]1(CCN(C(=O)c3ccccc3)C1)C2 [Compound I-30, (R)-1′-benzoyl-N-hydroxy-1,3-dihydrospiro[indene-2,3′-pyrrolidine]-5-carboxamide] | ≤ 10 |
| O=C(NO)c1ccc2c(c1)C[C@]1(CCN(C(=O)c3ccccc3)C1)C2 [Compound I-31, (S)-1′-benzoyl-N-hydroxy-1,3-dihydrospiro[indene-2,3′-pyrrolidine]-5-carboxamide] | ≤ 10 |
| O=C(NO)c1ccc2c(c1)C[C@]1(CCN(c3cccnc3)C1=O)C2 [Compound I-18, (S)—N-hydroxy-2′-oxo-1′-(pyridin-3-yl)-1,3-dihydrospiro[indene-2,3′-pyrrolidine]-5-carboxamide] | 10 to 50 |
| O=C(NO)c1ccc2c(c1)C[C@@]1(CCCN(c3ccccc3)C1=O)C2 [Compound I-36, (R)—N-hydroxy-2′-oxo-1′-phenyl-1,3-dihydrospiro[indene-2,3′-piperidine]-5-carboxamide] | ≤ 10 |
| O=C(NO)c1ccc2c(c1)C[C@@]1(CCN(c3ccccc3)C1=O)C2 [Compound I-13, (R)—N-hydroxy-2′-oxo-1′-phenyl-1,3-dihydrospiro[indene-2,3′-pyrrolidine]-5-carboxamide] | 10 to 50 |
| CC(=O)N1CC[C@@]2(Cc3ccc(C(=O)NO)cc3C2)C1 [Compound I-29, (S)-1′-acetyl-N-hydroxy-1,3-dihydrospiro[indene-2,3′-pyrrolidine]-5-carboxamide] | 10 to 50 |
| CC(C)N1CC[C@]2(Cc3ccc(C(=O)NO)cc3C2)C1=O [Compound I-3, (R)—N-hydroxy-1′-isopropyl-2′-oxo-1,3-dihydrospiro[indene-2,3′-pyrrolidine]-5-carboxamide] | 10 to 50 |
| O=C(NO)c1ccc2c(c1)C[C@@]1(CCCN(Cc3ccccc3)C1=O)C2 [Compound I-34, (R)-1′-benzyl-N-hydroxy-2′-oxo-1,3-dihydrospiro[indene-2,3′-piperidine]-5-carboxamide] | ≤ 10 |
